Like-named read-outs stand apart in the source and are kept apart here.
Experiments:
[1] = test system: phospho-RSK (the downstream target of ERK1/2); experiment: Pharmacodynamic assay, phospho-RSK in A375 tumor samples; type: in vivo, mice; settings: Mus musculus, A-375; A375 tumor samples harvested at 1 h after dosing at 50 mg/kg PO, compared to vehicle control
Method: (§1) Foxn1 nu/nu strain of female mice (obtained from Charles River Laboratories, USA), 8-10 weeks of age, body weight range 23-25 g, were used for the tumor xenograft efficacy studies. Human cancer cell lines (such as melanoma A375, colorectal HT29, pancreatic BxPC3, colorectal HCT116, and lung A549) were first grown in vitro, and then about five million (5×10^6) of these cells in 100 μL of serum free medium were mixed with an equal amount of matrigel, and the entire mixture was injected subcutaneously at the right flank region of mice. The tumors were measured with Vernier calipers periodically after the first week of injection. When the tumor volume reached 120-150 mm^3 (about 3-4 weeks after injection) the animals were randomized into different groups so that their tumor volume was approximately the same in all groups.
For PO dosing, the compounds were prepared in a formulation containing 0.5% Methyl cellulose and 0.01% Tween 80. For IV, SC, or IP dosing, the compounds were prepared in 6% solutol-ethanol (1:1), 6% DMSO and 88% saline. Animals were dosed with compounds prepared in specific formulations via PO, IP or SC route either QD or BID at the required doses. Tumors size and body weights were measured twice or thrice in a week. Tumors were harvested at the end of the study after euthanizing the animals according to approved protocols. […]

[2] = test system: HT-29 (colorectal carcinoma, B-RafV600E) cells; experiment: Cell proliferation (Alamar Blue) assay, HT-29; type: cell-based, human; settings: Homo sapiens, HT-29, HT29 cells
Method in brief: (§2)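 IC50 values derive from variable-slope sigmoidal fits of Alamar Blue fluorescence (540 nm excitation, 590 nm emission, 1-3 h dye incubation). Compound treatment ran 72 h at 37° C./5% CO2 over roughly 0.0005-10 uM in 3-fold steps, on cells plated at 5000/well and pre-incubated 16-24 h.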

[3] = test system: HCT116 (colorectal carcinoma, K Ras G13D) cells; experiment: Cell proliferation (Alamar Blue) assay, HCT116; type: cell-based, human; settings: Homo sapiens, HCT-116, HCT116 cells
Method in brief: as §2

[4] = test system: phosphorylation of RSK1(S380) (the downstream target of ERK1/2); experiment: Phospho-RSK1(S380) ELISA assay in HT-29 cells; type: cell-based, human; settings: Homo sapiens, HT-29, HT29 cells, read-out: Mechanistic Cell Assay RSK1 Phos HT29 IC50
Method in brief: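 IC50 values derive from a variable-slope sigmoidal fit of sandwich-ELISA signal (450 nm) for RSK1 Ser380 phosphorylation. The cells were B-RafV600E HT-29 colorectal line, exposed to serially diluted compound for 2 h after overnight seeding, then lysed at 4° C.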

[5] = test system: human melanoma xenograft model (A375) harboring B-RAF V600E mutation; experiment: A375 human melanoma xenograft model, tumor growth inhibition; type: in vivo, mice; settings: 50 mg/kg BID orally for 19 days
Method: as §1, with “When the tumor volume reached 120-150 mm^3 (about 3-4 weeks after injection) the animals were randomized into different groups so that their tumor volume was approximately the same in all groups.” left out
For PO dosing, the compounds were prepared in a formulation containing 0.5% Methyl cellulose and 0.01% Tween 80. […] Tumors size and body weights were measured twice or thrice in a week. […]
Changes in tumor volume (Δ volumes) for each treated (T) and control (C) group were calculated by subtracting the mean tumor volume on the first day of treatment (starting day) from the mean tumor volume on the specified observation day. […] Percentage tumor growth inhibition was calculated as [100−% T/C]. Percentage body weight change was calculated as [(Body weight on specified observation day−Body weight on starting day)/Body weight on starting day]×100. […]

[6] = target: T1, ERK1 (Homo sapiens, UniProt P27361); experiment: ERK1 HTRF (biochemical) assay; settings: HTRF
T1 construct: purchased Jubilant Biosys
T1 sequence (P27361 whole entry): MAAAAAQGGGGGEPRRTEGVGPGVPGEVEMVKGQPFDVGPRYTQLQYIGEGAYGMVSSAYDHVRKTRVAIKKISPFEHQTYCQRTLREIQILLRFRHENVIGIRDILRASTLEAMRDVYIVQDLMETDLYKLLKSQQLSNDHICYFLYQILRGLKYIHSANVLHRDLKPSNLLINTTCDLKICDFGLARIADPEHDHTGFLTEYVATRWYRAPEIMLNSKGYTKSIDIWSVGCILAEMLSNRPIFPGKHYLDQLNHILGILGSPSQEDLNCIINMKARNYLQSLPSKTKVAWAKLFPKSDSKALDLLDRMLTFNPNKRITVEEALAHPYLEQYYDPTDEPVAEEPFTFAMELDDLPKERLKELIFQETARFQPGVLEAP
Method: (§3) ERK1 and ERK2 HTRF (Biochemical) Assays
These assays employed a homogeneous time resolved fluorescence (HTRF) technique. […] The plate was incubated at room temperature for 60 min with shaking. […] The IC50 values (half maximal inhibitory concentration values) were subsequently determined using a sigmoidal dose-response curve (variable slope) in GraphPad Prism® 5 software.

[7] = target: T2, ERK2 (Homo sapiens, UniProt P28482); experiment: ERK2 HTRF (biochemical) assay; settings: HTRF
T2 construct: purchased Jubilant Biosys
T2 sequence (P28482 whole entry): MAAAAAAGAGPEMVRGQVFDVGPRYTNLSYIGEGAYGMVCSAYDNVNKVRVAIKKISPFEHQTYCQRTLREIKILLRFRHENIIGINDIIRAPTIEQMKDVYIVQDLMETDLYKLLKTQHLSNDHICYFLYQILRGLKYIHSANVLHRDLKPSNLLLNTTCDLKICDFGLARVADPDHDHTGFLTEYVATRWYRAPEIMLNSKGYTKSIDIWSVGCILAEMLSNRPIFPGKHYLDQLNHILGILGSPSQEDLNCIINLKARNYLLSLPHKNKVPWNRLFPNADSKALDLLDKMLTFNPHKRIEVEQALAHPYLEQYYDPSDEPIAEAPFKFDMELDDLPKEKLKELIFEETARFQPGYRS
Method: as §3
These assays employed a homogeneous time resolved fluorescence (HTRF) technique. The compounds were serially diluted by half-log with concentrations ranging from 0.0005 to 10 uM in the assay buffer (50 mM Tris pH=7.5, 1 mM EGTA, 2 mM DTT, 10 mM MgCl2, 0.100 Tween-20) and 20 uL of substrate-ATP mix [1 uM Biotin-LC-Myelin Basic Protein (MBP) derivatized Peptide (Anaspec)-24 uM ATP (Sigma)] was added to each well of the assay plate. Then 10 uL of enzyme mix [25 nM ERK1 or ERK2 (Jubilant Biosys) in assay buffer] was added to each well. The plate was incubated at room temperature for 60 min with shaking. The HTRF mix [625 nM LANCER Ultra Europium-anti-phospho-MBP (Perkin Elmer) and 2 nM Phycolink® Streptavidin-Allophycocyanin (SA-APC) (Prozyme) in HTRF buffer (50 mM Tris-HCl pH=7.5, 100 mM NaCl, 0.1% BSA, 0.05% Tween20, 0.5 mM EDTA)] was prepared and 75 uL of this mix was added to the HTRF plate. After incubation for 60 min at room temperature, 10 uL of the reaction mixture was transferred to the HTRF assay plate and incubated for 45 min at room temperature with shaking. Plate was read using Pherastar in HTRF mode (excitation 337 nm, emission 665 & 620 nm). The IC50 values (half maximal inhibitory concentration values) were subsequently determined using a sigmoidal dose-response curve (variable slope) in GraphPad Prism® 5 software.

Work on `Cc1cnc(NC2CCOCC2)nc1-n1cnc(C(=O)NC(CO)c2cccc(Cl)c2)c1` (centres unmarked) [Example 201] yielded an inhibition at 50 mg/kg [1] of ~66%.

In the case of `Cc1cnc(NC2CCOCC2)nc1-n1cnc(C(=O)N[C@H](CO)c2cccc(Cl)c2)c1` [Example 211], the inhibition at 50 mg/kg [1] is reported as ~84%.

In the case of `Cc1cnc(N[C@H]2CCOC2)nc1-n1cnc(C(=O)N[C@H](CN)c2cccc(Cl)c2)c1` [Example 255, N-((S)-2-amino-1-(3-chlorophenyl)ethyl)-1-(5-methyl-2-(((S)-tetrahydrofuran-3-yl)amino)pyrimidin-4-yl)-1H-imidazole-4-carboxamide], the IC50 [2] is reported as ≤ 0.1 µM, the IC50 [3] is reported as ≤ 0.1 µM and the IC50 ([4]; phospho-RSK1(S380)) is reported as ≤ 0.1 µM. For the same compound, the body weight loss [5] was “no significant body weight loss”.

`Cc1cnc(N[C@H]2CCOC2)nc1-n1cnc(C(=O)NCc2cccc(C(C)(C)C)c2)c1` [Example 327, (S)-1-(5-methyl-2-((tetrahydrofuran-3-yl)amino)pyrimidin-4-yl)-N-(3-tert-butylbenzyl)-1H-imidazole-4-carboxamide] was tested, and the IC50 [6] was < 0.05 µM, the IC50 [7] was ≤ 0.05 µM and the IC50 [2] was 0.5 to 2.5 µM. For the same compound, the IC50 [3] was > 2.5 µM and the IC50 [4] was 0.1 to 0.25 µM.
